Laboratory results taken from ChEMBL document CHEMBL4308906, “Design and synthesis of selective CYP1B1 inhibitor via dearomatization of α-naphthoflavone” (Bioorg Med Chem, 2019).

What was measured:
Cytochrome P450 1B1 [1] = target: T1, Cytochrome P450 1B1 (Homo sapiens, UniProt Q16678); experiment: Inhibition of human recombinant CYP1B1 using 7-ethoxyresorufin as substrate assessed as percent enzyme activity at 1 uM after 30 mins in presence of NADPH by EROD assay relative to control; design: scale not given: the % may be the effect or the level left; conditions: read-out: Activity
T1 sequence (Q16678 whole entry): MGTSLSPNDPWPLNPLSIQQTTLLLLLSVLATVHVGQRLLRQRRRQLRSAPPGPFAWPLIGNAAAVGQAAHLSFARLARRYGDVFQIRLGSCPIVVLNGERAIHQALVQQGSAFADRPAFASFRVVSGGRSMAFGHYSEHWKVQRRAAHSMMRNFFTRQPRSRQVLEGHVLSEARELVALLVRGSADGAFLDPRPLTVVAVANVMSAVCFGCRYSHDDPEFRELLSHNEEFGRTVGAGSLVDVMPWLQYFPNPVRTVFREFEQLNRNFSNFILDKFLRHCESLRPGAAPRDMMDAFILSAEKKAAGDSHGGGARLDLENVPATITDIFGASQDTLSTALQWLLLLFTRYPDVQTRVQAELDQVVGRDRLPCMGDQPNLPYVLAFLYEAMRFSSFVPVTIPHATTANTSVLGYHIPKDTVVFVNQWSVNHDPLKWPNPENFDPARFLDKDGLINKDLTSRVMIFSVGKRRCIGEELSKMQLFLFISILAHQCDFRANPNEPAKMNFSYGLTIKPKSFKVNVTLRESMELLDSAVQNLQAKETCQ

CYP1A2 = target: T2, CYP1A2 (Homo sapiens, UniProt P05177); experiment: Inhibition of human recombinant CYP1A2 using 7-ethoxyresorufin as substrate assessed as percent enzyme activity at 1 uM after 30 mins in presence of NADPH by EROD assay relative to control; type: ADME; design: scale not given: the % may be the effect or the level left; conditions: recombinant CYP1A2, probe 7-ethoxyresorufin, read-out: Activity
T2 sequence (P05177 whole entry): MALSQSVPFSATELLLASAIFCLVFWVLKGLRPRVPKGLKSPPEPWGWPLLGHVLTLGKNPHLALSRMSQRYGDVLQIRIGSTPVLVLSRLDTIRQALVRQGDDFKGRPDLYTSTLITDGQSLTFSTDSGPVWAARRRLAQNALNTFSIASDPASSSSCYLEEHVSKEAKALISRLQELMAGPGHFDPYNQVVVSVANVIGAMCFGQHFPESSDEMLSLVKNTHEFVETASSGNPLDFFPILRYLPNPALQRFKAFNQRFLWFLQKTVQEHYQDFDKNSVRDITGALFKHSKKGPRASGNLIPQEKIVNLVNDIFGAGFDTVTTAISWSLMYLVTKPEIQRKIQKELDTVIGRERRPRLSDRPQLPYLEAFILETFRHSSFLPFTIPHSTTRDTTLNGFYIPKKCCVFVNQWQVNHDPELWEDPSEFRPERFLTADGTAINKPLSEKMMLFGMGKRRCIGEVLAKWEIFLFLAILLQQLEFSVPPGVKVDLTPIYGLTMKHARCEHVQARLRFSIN

CYP1A1 = target: T3, CYP1A1 (Homo sapiens, UniProt P04798); experiment: Inhibition of human recombinant CYP1A1 using 7-ethoxyresorufin as substrate assessed as percent enzyme activity at 1 uM after 15 mins in presence of NADPH by EROD assay relative to control; type: ADME; design: scale not given: the % may be the effect or the level left; conditions: recombinant CYP1A1, probe 7-ethoxyresorufin, read-out: Activity
T3 sequence (P04798 whole entry): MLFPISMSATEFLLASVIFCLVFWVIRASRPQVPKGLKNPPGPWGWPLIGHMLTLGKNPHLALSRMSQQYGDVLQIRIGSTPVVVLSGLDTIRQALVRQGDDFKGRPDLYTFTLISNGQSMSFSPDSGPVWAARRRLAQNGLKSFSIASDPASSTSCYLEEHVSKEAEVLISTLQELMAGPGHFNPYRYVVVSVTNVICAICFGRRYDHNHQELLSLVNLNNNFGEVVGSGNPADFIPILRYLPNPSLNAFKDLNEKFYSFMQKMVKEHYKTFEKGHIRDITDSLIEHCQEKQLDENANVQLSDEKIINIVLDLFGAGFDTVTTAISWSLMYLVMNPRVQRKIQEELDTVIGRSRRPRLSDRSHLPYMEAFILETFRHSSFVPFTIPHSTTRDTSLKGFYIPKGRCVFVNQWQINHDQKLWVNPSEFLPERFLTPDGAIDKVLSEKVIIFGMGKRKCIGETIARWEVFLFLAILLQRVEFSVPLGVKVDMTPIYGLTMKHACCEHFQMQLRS

Cytochrome P450 1B1 [2] = target: T1, Cytochrome P450 1B1; experiment: Binding affinity to human C-terminal 4His-tagged CYP1B1 expressed in Escherichia coli DH5alpha assessed as spectral dissociation constant by spectrophotometric analysis; conditions: read-out: Ks
Cytochrome P450 1A1 = target: T4, Cytochrome P450 1A1 (Homo sapiens, UniProt P04798); experiment: Inhibition of human recombinant CYP1A1 using 7-ethoxyresorufin as substrate after 15 mins in presence of NADPH by EROD assay; type: ADME
T4 sequence (P04798 whole entry): T3 sequence (P04798 whole entry)

Homo sapiens = species on record: Homo sapiens; experiment: Selectivity ratio of IC50 for human recombinant CYP1A1 to IC50 for human recombinant CYP1B1
Cytochrome P450 1B1 [3] = target: T1, Cytochrome P450 1B1; experiment: Inhibition of human recombinant CYP1B1 using 7-ethoxyresorufin as substrate after 30 mins in presence of NADPH by EROD assay

Compound | activity at 0.5 h, 1 µM (Cytochrome P450 1B1 [1]) | activity at 0.5 h, 1 µM (CYP1A2) | activity at 0.25 h, 1 µM (CYP1A1) | Kd (Cytochrome P450 1B1 [2]) | IC50 (Cytochrome P450 1A1) | Ratio IC50 (Homo sapiens) | IC50 (Cytochrome P450 1B1 [3])
O=c1cc(-c2cccc(O)c2)oc2c1ccc1ccccc12 | 1.6% | 37.2% | 8.2% | – | – | – | –
CN(C)C(=O)Sc1ccc(-c2cc(=O)c3ccc4ccccc4c3o2)cc1 | 12.3% | 91.9% | 10.3% | – | – | – | –
O=c1cc([C@@H]2CCC[C@@H](O)C2)oc2c1ccc1ccccc12 (relative stereo) | 72.9% | 73.9% | 78% | – | – | – | –
O=c1cc(C2CC=CCC2)oc2c1ccc1ccccc12 (stereo not given) | 6.5% | 36.9% | 38.1% | 3.1 µM | – | – | –
O=c1cc(C2=CCCCC2)oc2c1ccc1ccccc12 | -12.9% | 21.2% | 3.2% | 1.1 µM | – | – | –
O=c1cc([C@H]2CC[C@@H](S)CC2)oc2c1ccc1ccccc12 | 0.5% | – | 3.9% | 9.4 µM | 0.0762 µM | 1.97 | 0.0388 µM
c1c[nH]cn1 [IMIDAZOLE] | – | – | – | 1260 µM | – | – | –
O=c1cc(C2CCC(CO)CC2)oc2c1ccc1ccccc12 (mixture of isomers) | 56.9% | 92.7% | 85.9% | – | – | – | –
Nc1ccc(-c2cc(=O)c3ccc4ccccc4c3o2)cc1 | -1.2% | -16.3% | 2.1% | – | – | – | –
CN(C)C(=S)Oc1cccc(-c2cc(=O)c3ccc4ccccc4c3o2)c1 | 2.5% | 75.4% | 3.1% | – | – | – | –
C#C[C@H]1CC[C@@H](c2cc(=O)c3ccc4ccccc4c3o2)CC1 | 0.9% | 21% | 11.3% | 7.3 µM | – | – | –
O=c1cc(-c2cccc(S)c2)oc2c1ccc1ccccc12 | 9.8% | 56.2% | 18.7% | – | – | – | –
O=c1cc(C23CC4CC(CC(C4)C2)C3)oc2c1ccc1ccccc12 | 89% | 77.8% | 53.9% | – | – | – | –
O=c1cc(C2CCCC2)oc2c1ccc1ccccc12 | 55.3% | 34.5% | 28% | – | – | – | –
CS(=O)(=O)O[C@@H]1CCC[C@@H](c2cc(=O)c3ccc4ccccc4c3o2)C1 (relative stereo) | 59.9% | 69.1% | 66.5% | – | – | – | –
O=c1cc(C2CCCC(S)C2)oc2c1ccc1ccccc12 (mixture of isomers) | -2.5% | – | 0% | 8.1 µM | 0.134 µM | 2.02 | 0.0661 µM
CS(=O)(=O)OCC1CCC(c2cc(=O)c3ccc4ccccc4c3o2)CC1 (racemic) | 50.1% | 96.4% | 78.1% | – | – | – | –
O=c1cc(-c2ccc(S)cc2)oc2c1ccc1ccccc12 | 54.3% | 106% | 71.3% | – | – | – | –
NC1CCCC(c2cc(=O)c3ccc4ccccc4c3o2)C1 (mixture of isomers) | 64.7% | 44.5% | 80.9% | 2.9 µM | – | – | –
